IC50 data for 25 compounds are collected here from US10028961B2, “Therapeutically active compounds and their methods of use” (AGIOS PHARMACEUTICALS, INC., priority 2013, dated 2018).

Experiment [1] has as its target IDH1-R132H homodimer enzyme (Homo sapiens (Human), UniProt O75874, R132H). Kind of experiment: In vitro assay IDH1-R132H homodimer, NADPH depletion assay with NADPH/NADP preincubation. The class given is biochemical. The following applies: 5 μM NADPH and 37.5 μM NADP. In a few lines: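 Conversion of alpha-ketoglutarate to 2-hydroxyglutarate tracked by NADPH depletion. Reaction started with 5 mM alpha-ketoglutarate plus NADPH substrate mix (50 μl total), 60 min at room temperature. Leftover NADPH quantified via diaphorase/resazurin fluorescence.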

For experiment [2], the target named is IDH1-R132C homodimer enzyme (Homo sapiens (Human), UniProt O75874, R132C). Briefly: In vitro assay IDH1-R132C homodimer, NADPH depletion assay with NADPH/NADP preincubation. In kind it is biochemical. Conditions: 5 uM NADPH and 28.75 uM NADP, read-out: IDH R132C NADPH/NADP IC50. On the procedure:
The following describes the experimental procedures that can be used to obtain data on columns 3 and 5 of Table 5.
A test compound is prepared as 10 mM stock in DMSO and diluted to 50× final concentration in DMSO, for a 50 μl reaction mixture. IDH enzyme activity converting alpha-ketoglutarate to 2-hydroxyglutaric acid is measured using a NADPH depletion assay. In the assay the remaining cofactor is measured at the end of the reaction with the addition of a catalytic excess of diaphorase and resazurin, to generate a fluorescent signal in proportion to the amount of NADPH remaining. […] The reaction is started with the addition of 10 μl of Substrate Mix ([…], 5 mM alpha-ketoglutarate, in Assay Buffer) and the mixture is incubated for 60 minutes at room temperature.
The concentration of alpha-ketoglutarate in the Substrate Buffer is 1 mM.

Experiment [3] concerns the target T1, IDH2 R140Q (Homo sapiens (Human), UniProt P48735, R140Q). Kind of experiment: In vitro assay for IDH2m R140Q inhibitors, cofactor depletion assay. Conditions: IDH2 R140Q enzyme. In kind it is biochemical. In a few lines:
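Remaining cofactor measured fluorimetrically: diaphorase/resazurin Stop Mix […], halting the reaction. Before that, mutant enzyme and compound sat 1 h at RT, then substrate mix (4 μM NADPH, 1.6 mM α-KG) was added for 16 h at RT.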

The next experiment relates to HT1080 cells. Briefly: Cellular assay for IDH1m R132C inhibitors, 2-HG by LC-MS in HT1080 cells. In kind it is cell-based. The following applies: Homo sapiens, HT-1080. In a few lines:
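HT1080 cells at 5000 cells/well were treated with compound (0.2% DMSO final). After 48 h, 2-HG in the medium was measured by LC-MS. Viability was read by CellTiter-Glo luminescence at 72 h.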

Experiment [4] addresses T1, IDH2 R140Q. Briefly: In vitro assay for IDH2m R140Q inhibitors, cofactor depletion assay, 16 hr preincubation with NADPH/NADP. The class given is biochemical. The following applies: read-out: IDH2 R140Q 16 hr NADPH/NADP IC50; 16 hrs preincubation with enzyme, 5 uM NADPH and 750 uM NADP. From the text:
The following describes the experimental procedures used to obtain data on column 6 of Table 5.
The reaction is terminated by the addition of a second enzyme, diaphorase, and a corresponding substrate, resazurin. Diaphorase reduces resazurin to the highly fluorescent resorufin with the concomitant oxidation of NADPH to NADP, both halting the IDH2 reaction by depleting the available cofactor pool and facilitating quantitation of the amount of cofactor remaining after a specific time period through quantitative production of an easily detected fluorophore.
The test compound is then incubated for 16 hrs at room temperature with the enzyme and cofactors before starting the IDH2 reaction with the addition of 10 μl of substrate mix containing 8 mM α-KG (final concentration 1.6 mM) in the buffer described above. After a further 1 hour of incubation at room temperature, the reaction is halted and the remaining NADPH measured through conversion of resazurin to resorufin by the addition of 25 μl Stop Mix (36 μg/ml diaphorase enzyme and 60 μM resazurin; in buffer).

The structures appear in SMILES notation.

Sequence of IDH1-R132H homodimer enzyme (O75874 whole entry R132H): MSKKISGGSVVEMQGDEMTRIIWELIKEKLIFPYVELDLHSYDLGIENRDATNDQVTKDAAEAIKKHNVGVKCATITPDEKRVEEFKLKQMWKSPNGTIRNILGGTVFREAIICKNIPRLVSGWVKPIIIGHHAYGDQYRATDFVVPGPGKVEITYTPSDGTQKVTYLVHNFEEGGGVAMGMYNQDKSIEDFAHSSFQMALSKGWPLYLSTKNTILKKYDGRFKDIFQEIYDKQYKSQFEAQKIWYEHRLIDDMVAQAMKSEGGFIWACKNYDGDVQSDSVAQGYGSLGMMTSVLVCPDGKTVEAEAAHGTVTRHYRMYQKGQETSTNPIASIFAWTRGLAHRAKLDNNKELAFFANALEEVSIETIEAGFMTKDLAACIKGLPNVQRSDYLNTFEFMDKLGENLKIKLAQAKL
Sequence of IDH1-R132C homodimer enzyme (O75874 whole entry R132C): as the sequence (O75874 whole entry R132H) above, with H132C counted along it
T1 sequence (P48735 40-452 R140Q): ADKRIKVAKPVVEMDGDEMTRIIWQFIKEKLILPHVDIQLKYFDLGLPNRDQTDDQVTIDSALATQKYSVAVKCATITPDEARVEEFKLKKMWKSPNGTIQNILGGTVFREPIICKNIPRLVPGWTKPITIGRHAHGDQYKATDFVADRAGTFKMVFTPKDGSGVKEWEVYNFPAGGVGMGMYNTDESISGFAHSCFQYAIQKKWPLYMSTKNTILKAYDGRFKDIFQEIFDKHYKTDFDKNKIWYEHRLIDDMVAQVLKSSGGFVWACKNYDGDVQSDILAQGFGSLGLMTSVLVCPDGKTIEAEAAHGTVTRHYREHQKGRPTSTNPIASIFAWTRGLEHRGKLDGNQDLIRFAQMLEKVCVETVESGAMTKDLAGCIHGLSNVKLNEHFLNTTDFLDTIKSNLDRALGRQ

In the case of `Fc1cc(F)cc(Nc2nc(NC3CC(F)(F)C3)nc(-n3ccc(C(F)(F)F)n3)n2)c1` [Compound 106], the IC50 is under 50 nM in experiment [1], under 50 nM in experiment [2], under 50 nM on IDH2 R140Q [3] and 100 to 1000 nM in the experiment with HT1080 cells.

For the compound `CCC(Nc1nc(NC(CC)C2CC2)nc(-c2cccc(Cl)n2)n1)C1CC1` (stereo not drawn) [Compound 110], the IC50 was 50 to 100 nM in experiment [1], under 50 nM against IDH2 R140Q [3], under 50 nM on IDH2 R140Q [4] and 50 to 100 nM in the experiment on HT1080 cells.

In the case of `FC1(F)CCC(Nc2nc(NC3CCC(F)(F)C3)nc(-c3cccc(Cl)n3)n2)C1` (stereo not drawn) [Compound 113], the IC50 (in experiment [1]; against IDH2 R140Q [3]; on IDH2 R140Q [4]; in the experiment with HT1080 cells) was under 50 nM throughout.

As for `CC(C)(C)Nc1nc(Nc2cccc(C#N)c2)nc(-c2cccc(C(F)(F)F)n2)n1` [Compound 117], the values for the IC50 against IDH2 R140Q [3], on IDH2 R140Q [4] and in the experiment with HT1080 cells were under 50 nM, under 50 nM and over 1000 nM, respectively.

Regarding `N#CC1(c2cc(Nc3nc(NC4CCC(F)(F)C4)nc(-c4cccc(Cl)n4)n3)ccn2)CC1` (stereo not drawn) [Compound 127], the IC50 in experiment [1] is under 50 nM; against IDH2 R140Q [3], under 50 nM; on IDH2 R140Q [4], under 50 nM; in the experiment with HT1080 cells, 50 to 100 nM.

Take `FC1(F)CCC(Nc2nc(NC3CCC(F)(F)CC3)nc(-c3cncc(C(F)(F)F)n3)n2)CC1` [Compound 160]: the IC50 was 50 to 100 nM in experiment [1], 100 to 1000 nM in experiment [2], under 50 nM against IDH2 R140Q [3] and under 50 nM in the experiment with HT1080 cells.

`FC1(F)CC(Nc2nc(NC3CC(F)(F)C3)nc(-c3cncc(C(F)(F)F)n3)n2)C1` [Compound 161]: the IC50 in experiment [1] was under 50 nM; in experiment [2], 50 to 100 nM; at IDH2 R140Q [3], under 50 nM; in the experiment with HT1080 cells, under 50 nM.

On to `C[C@@H](Nc1nc(Nc2ccnc(C3(C#N)CC3)c2)nc(-c2cccc(Cl)n2)n1)C1CC1` [Compound 167], for which the IC50 (in experiment [1]; against IDH2 R140Q [3]; at IDH2 R140Q [4]) was under 50 nM throughout.

For the compound `N#CC1(c2cc(Nc3nc(NC4CC(F)(F)C4)nc(-c4cccc(C(F)(F)F)n4)n3)ccn2)CC1` [Compound 168], the IC50 in experiment [1] is under 50 nM; in experiment [2] it was 50 to 100 nM; on IDH2 R140Q [3], under 50 nM; in the experiment on HT1080 cells it was under 50 nM.

For the compound `FC1(F)CCC(Nc2nc(Nc3ccnc(C(F)(F)F)c3)nc(-c3cccc(C(F)(F)F)n3)n2)C1` (stereo not drawn) [Compound 178], the IC50 is 50 to 100 nM in experiment [1], under 50 nM at IDH2 R140Q [3] and under 50 nM on IDH2 R140Q [4].

`N#CC1(c2cc(Nc3nc(NC4CCC(F)(F)CC4)nc(-c4cccc(C(F)(F)F)n4)n3)ccn2)CC1` [Compound 189]: the IC50 is 100 to 1000 nM in experiment [1], 100 to 1000 nM in experiment [2], under 50 nM against IDH2 R140Q [3] and 100 to 1000 nM in the experiment with HT1080 cells.

Regarding `C[C@@H](Nc1nc(NC(C2CC2)C2CC2)nc(-c2cccc(C(F)(F)F)n2)n1)C1CC1` [Compound 193], the IC50 in experiment [1] was 50 to 100 nM; against IDH2 R140Q [3] it was under 50 nM; on IDH2 R140Q [4], under 50 nM.

In the case of `CC(Nc1nc(N[C@H](C)C2CC2)nc(-c2cccc(C(F)(F)F)n2)n1)C(F)(F)F` (stereo partly drawn) [Compound 203], the IC50 (in experiment [1]; against IDH2 R140Q [3]; at IDH2 R140Q [4]; in the experiment with HT1080 cells) was under 50 nM each time.

`CC(C)(O)CNc1nc(Nc2cc(F)cc(C#N)c2)nc(-c2cccc(C(F)(F)F)n2)n1` [Compound 244]: the results for the IC50 against IDH2 R140Q [3], on IDH2 R140Q [4] and with HT1080 cells were under 50 nM, 50 to 100 nM and over 1000 nM, respectively.

For the compound `CC(C)(C)Nc1nc(Nc2cc(F)cc(C#N)c2)nc(-c2nccc(C(F)(F)F)n2)n1` [Compound 245], the IC50 at IDH2 R140Q [3] and on IDH2 R140Q [4] was under 50 nM throughout.

Consider `CC(CC#N)Nc1nc(Nc2ccnc(C(C)(F)F)c2)nc(-c2cccc(C(F)(F)F)n2)n1` (stereo not drawn) [Compound 250], for which the IC50 is 100 to 1000 nM in experiment [1], 100 to 1000 nM at IDH2 R140Q [3] and 50 to 100 nM on IDH2 R140Q [4].

`FC1(F)CCC(Nc2nc(NC3CCOCC3)nc(-c3cccc(C(F)(F)F)n3)n2)CC1` [Compound 255]: the IC50 (in experiment [1]; at IDH2 R140Q [4]; in the experiment with HT1080 cells) was 100 to 1000 nM throughout.

Consider `O=C(c1ccccc1)N1CCC(Nc2nc(NC3CCC(F)(F)C3)nc(-c3cccc(C(F)(F)F)n3)n2)C1` (stereo not drawn) [Compound 263], for which the IC50 (in experiment [1]; at IDH2 R140Q [4]; in the experiment with HT1080 cells) was 100 to 1000 nM each time.

With `CS(=O)(=O)N1CCC(Nc2nc(NC3CCC(F)(F)CC3)nc(-c3cccc(C(F)(F)F)n3)n2)CC1` [Compound 266], the figures for the IC50 (in experiment [1]; at IDH2 R140Q [4]; in the experiment with HT1080 cells) were over 1000 nM, 100 to 1000 nM and over 1000 nM, respectively.

On to `C[C@@H](Nc1nc(N[C@H](C)C2CC2)nc(-c2nccc(C(F)(F)F)n2)n1)C1CC1` [Compound 268], for which the IC50 in experiment [1] is over 1000 nM; on IDH2 R140Q [3] it was 50 to 100 nM; on IDH2 R140Q [4], 50 to 100 nM; in the experiment on HT1080 cells, 100 to 1000 nM.

Regarding `CC(=O)N1CCC(Nc2nc(NC3CCC(F)(F)CC3)nc(-c3cccc(C(F)(F)F)n3)n2)CC1` [Compound 273], the IC50 (in experiment [1]; on IDH2 R140Q [4]; in the experiment with HT1080 cells) was over 1000 nM each time.

For `FC1(F)CCC(Nc2nc(NC3CCN(Cc4ccccc4)C3)nc(-c3cccc(C(F)(F)F)n3)n2)C1` (stereo not drawn) [Compound 280], the IC50 in experiment [1] is over 1000 nM; at IDH2 R140Q [4], 100 to 1000 nM; with HT1080 cells, over 1000 nM.

On to `FC1(F)CCC(Nc2nc(Nc3ccnc(C(F)(F)F)c3)nc(-c3cncc(C(F)(F)F)n3)n2)CC1` [Compound 389], for which the IC50 is 50 to 100 nM in experiment [1], 100 to 1000 nM in experiment [2], under 50 nM on IDH2 R140Q [3] and 100 to 1000 nM in the experiment on HT1080 cells.

For `FC1(F)CC[C@H](Nc2nc(Nc3ccnc(C(F)(F)F)c3)nc(-c3cncc(C(F)(F)F)n3)n2)C1` [Compound 391], the IC50 in experiment [1] was 50 to 100 nM; in experiment [2], 100 to 1000 nM; on IDH2 R140Q [3], under 50 nM; in the experiment on HT1080 cells, 100 to 1000 nM.

As to `N#CC1(c2cc(Nc3nc(NC4CC(F)(F)C4)nc(-c4cncc(C(F)(F)F)n4)n3)ccn2)CC1` [Compound 401], the IC50 was under 50 nM in experiment [1], 100 to 1000 nM in experiment [2], under 50 nM against IDH2 R140Q [3] and 100 to 1000 nM with HT1080 cells.
